Laboratory results: patent US9611289B2, “Farnesoid X receptor modulators” (Intercept Pharmaceuticals, Inc., priority 2013, dated 2017)
Values after ≈ are worked out from the molar mass of the structure shown.

How the values were obtained:
CYP2D6 = CYP2D6 (Homo sapiens, UniProt P10635); assay: biochemical
[1] = 1-octanol-water partition coefficient (LogPA-); details: ionized species
CYP2C19 = CYP2C19 (Homo sapiens, UniProt P33261); assay: biochemical
physchem = details: water
PXR = molecular target: T1, PXR (Homo sapiens, UniProt O75469); assay: AlphaScreen nuclear receptor activation; assay type: biochemical
T1 sequence (O75469 1-434): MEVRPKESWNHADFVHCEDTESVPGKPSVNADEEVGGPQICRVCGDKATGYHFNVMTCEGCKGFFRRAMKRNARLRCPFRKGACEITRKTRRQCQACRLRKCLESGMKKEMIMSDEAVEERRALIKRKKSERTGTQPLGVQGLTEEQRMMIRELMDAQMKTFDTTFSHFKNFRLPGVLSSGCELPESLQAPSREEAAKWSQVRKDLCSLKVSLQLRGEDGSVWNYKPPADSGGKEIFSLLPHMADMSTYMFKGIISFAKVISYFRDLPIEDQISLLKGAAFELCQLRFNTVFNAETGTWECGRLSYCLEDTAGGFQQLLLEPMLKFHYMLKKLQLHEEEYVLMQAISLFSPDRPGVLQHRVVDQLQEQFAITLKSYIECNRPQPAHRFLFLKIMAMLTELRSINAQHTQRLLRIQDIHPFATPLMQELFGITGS

hERG potassium channel = hERG potassium channel (Homo sapiens, UniProt Q12809); assay: PREDICTOR hERG Fluorescence Polarization assay; details: CHO-hERG membrane preparations
[2] = Critical micellar concentration; assay type: physicochemical; details: […] NaCl water solution
LXRβ = LXRβ (Homo sapiens, UniProt P55055); assay: AlphaScreen nuclear receptor activation; assay type: biochemical
GR = GR (Homo sapiens, UniProt P04150); assay: AlphaScreen nuclear receptor activation; assay type: biochemical
PPARα = PPARα (Homo sapiens, UniProt Q07869); assay: AlphaScreen nuclear receptor activation; assay type: biochemical
PPARδ = PPARδ (Homo sapiens, UniProt Q03181); assay: AlphaScreen nuclear receptor activation; assay type: biochemical
CYP2E1 = CYP2E1 (Homo sapiens, UniProt P05181); assay: biochemical
CAR = CAR (Homo sapiens, UniProt Q14994); assay: AlphaScreen nuclear receptor activation; assay type: biochemical
VDR = VDR (Homo sapiens, UniProt P11473); assay: AlphaScreen nuclear receptor activation; assay type: biochemical
CYP2C9 = CYP2C9 (Homo sapiens, UniProt P11712); assay: biochemical
CYP3A4 [3] = molecular target: T2, CYP3A4 (Homo sapiens, UniProt P08684); assay: CYP450 inhibition, recombinant baculosomes, fluorescent signal; details: read-out: CYP3A4 (Green Substrate) IC50
Surface tension at CMC = assay type: physicochemical; details: […] NaCl water solution
RARα = RARα (Homo sapiens, UniProt P10276); assay: AlphaScreen nuclear receptor activation; assay type: biochemical
RXR = assay: AlphaScreen nuclear receptor activation; assay type: biochemical
TR = assay: AlphaScreen nuclear receptor activation; assay type: biochemical
HepG2 cells = assay: cells; details: Homo sapiens, HepG2, read-out: Membrane integrity EC50 (μM) (LDH measure)
FXR target genes = assay: Quantitative RT-PCR of FXR target genes in HepG2 cells; assay type: cell-based, human; details: 1 μM, overnight
PR = PR (Homo sapiens, UniProt P06401); assay: AlphaScreen nuclear receptor activation; assay type: biochemical
CYP3A4 [4] = molecular target: T2, CYP3A4; assay: biochemical
PPARγ = PPARγ (Homo sapiens, UniProt P37231); assay: AlphaScreen nuclear receptor activation; assay type: biochemical
CYP1A2 = molecular target: T3, CYP1A2 (Homo sapiens, UniProt P05177); assay: biochemical
T3 sequence (P05177 1-516): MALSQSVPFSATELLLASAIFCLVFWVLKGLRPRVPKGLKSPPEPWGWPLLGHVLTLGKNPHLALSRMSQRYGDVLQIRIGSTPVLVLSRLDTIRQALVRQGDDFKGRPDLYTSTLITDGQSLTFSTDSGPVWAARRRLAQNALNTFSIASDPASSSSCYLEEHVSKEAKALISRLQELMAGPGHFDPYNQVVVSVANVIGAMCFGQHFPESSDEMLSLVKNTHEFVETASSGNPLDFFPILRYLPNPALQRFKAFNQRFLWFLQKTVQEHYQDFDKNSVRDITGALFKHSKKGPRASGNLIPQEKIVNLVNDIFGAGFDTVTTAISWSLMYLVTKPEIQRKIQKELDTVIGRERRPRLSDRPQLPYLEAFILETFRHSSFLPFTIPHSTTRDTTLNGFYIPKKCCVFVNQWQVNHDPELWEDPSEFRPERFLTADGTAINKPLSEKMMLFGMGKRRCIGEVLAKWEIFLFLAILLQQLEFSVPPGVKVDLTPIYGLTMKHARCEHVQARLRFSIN

With `CC[C@H]1[C@@H](O)[C@@H]2[C@H](CC[C@]3(C)[C@@H]([C@H](C)CCC(=O)O)CC[C@@H]23)[C@@]2(C)CC[C@@H](O)C[C@@H]12` [Compound A, 6α-ethyl-3α,7α-dihydroxy-5β-cholan-24-oic acid] the IC50 (CYP2D6) was greater than 10 µM, the “LogPA−(d) 1-octanol-water partition coefficient” value [1] was 2.5 and the IC50 (CYP2C19) was greater than 10 µM. The solubility (physchem) was 9 µM (≈ 3.79 µg/mL), the “PXR Activation EC50 (μM)” value (PXR) was “No activity” and the “block or inhibition of the hERG potassium channel” value (hERG potassium channel) was “does not block or inhibit”. For the same molecule, the “CMC(b) (mM) Critical Micellar Concentration” value [2] was 2.9 mM, the “LXRβ Activation EC50 (μM)” value (LXRβ) was “No activity” and the “GR Activation EC50 (μM)” value (GR) was “No activity”. For the same molecule, the “PPARα Activation EC50 (μM)” value (PPARα) was “No activity”, the “PPARδ Activation EC50 (μM)” value (PPARδ) was “No activity” and the IC50 (CYP2E1) was greater than 10 µM. The “CAR Activation EC50 (μM)” value (CAR) was “No activity”, the “VDR Activation EC50 (μM)” value (VDR) was “No activity” and the “ER Activation EC50 (μM)” value (ER) was “No activity”. For the same molecule, the IC50 (CYP2C9) was greater than 10 µM, the IC50 (CYP3A4 [3]) was greater than 10 µM and the “STCMC(c) (Dyne/cm) Surface Tension at CMC” value (Surface tension at CMC) was 43.2-48.8 Dyne/cm. The “RARα Activation EC50 (μM)” value (RARα) was “No activity”, the “RXR Activation EC50 (μM)” value (RXR) was “No activity” and the “TR Activation EC50 (μM)” value (TR) was “No activity”. The EC50 (HepG2 cells) was 190 ± 30 µM, the APOCII gene expression (FXR target genes) was “up” and the BSEP gene expression (FXR target genes) was “up”. The CYP7α1 gene expression (FXR target genes) was “down”, the FGF-19 gene expression (FXR target genes) was “up” and the MRP2 gene expression (FXR target genes) was “up”. For the same molecule, the OSTα gene expression (FXR target genes) was “up”, the OSTβ gene expression (FXR target genes) was “up” and the PEPCK gene expression (FXR target genes) was “up”. For the same molecule, the PLTP gene expression (FXR target genes) was “up”, the PPARγ gene expression (FXR target genes) was “up” and the SHP gene expression (FXR target genes) was “up”. The SREBP-1C gene expression (FXR target genes) was “down”, the UGT2B4 gene expression (FXR target genes) was “up” and the “PR Activation EC50 (μM)” value (PR) was “No activity”. The IC50 (CYP3A4 [4]) was greater than 10 µM, the “PPARγ Activation EC50 (μM)” value (PPARγ) was “No activity” and the IC50 (CYP1A2) was greater than 10 µM.
